Laboratory results reported in US11903387B2 (priority 2016, dated 2024).
Where “and” joins values, the source holds several entries; their conditions need not be identical. Identical values can stand only once. Like-named read-outs stand apart in the source and are kept apart here.

How the values were obtained:
Phytophthora infestans = test: whole plant or invertebrate; format: in vivo; conditions: for pest or weed control at 20 ppm: read-out: Test 1 Measured, component (b) alone 20 ppm; for pest or weed control at 100 ppm: read-out: Test 1 Measured, component (b) alone 100 ppm; for pest or weed control at 500 ppm: read-out: Test 1 Measured, component (b) alone 500 ppm
[1] = system: Pseudoperonospora cubensis; test: Test 2: control effect against cucumber downy mildew; format: in vivo; conditions: for pest or weed control at 20 ppm: component (b) alone 20 ppm; for pest or weed control at 100 ppm: component (b) alone 100 ppm
[2] = component (b) alone 0.4 ppm, average of three repeats
[3] = component (b) alone 2 ppm, average of three repeats
[4] = component (b) alone 10 ppm, average of three repeats
[5] = Phytophthora infestans, in Solanum lycopersicum, read-out: Test 1 Measured preventive value, component (b) alone, 2 ppm
[6] = Phytophthora infestans, in Solanum lycopersicum, read-out: Test 1 Measured preventive value, component (b) alone, 10 ppm
[7] = Phytophthora infestans, in Solanum lycopersicum, read-out: Test 1 Measured preventive value, component (b) alone, 50 ppm
[8] = Phytophthora infestans, in Solanum lycopersicum
[9] = Pseudoperonospora cubensis, read-out: Test 2 Measured

## COC(=O)CC(NC(=O)[C@@H](NC(=O)OC(C)C)C(C)C)c1ccc(Cl)cc1 (stereo partly shown) [Valifenalate]
Phytophthora infestans; [2]
  Test 1 Measured preventive value: 20.0
Phytophthora infestans; [3]
  Test 1 Measured preventive value: 51.7
Phytophthora infestans; [4]
  Test 1 Measured preventive value: 96.2
Phytophthora infestans; component (b) alone, 0.4 ppm
  Test 1 Measured: 10.0
  Test 1 Measured preventive value: 20.0
Phytophthora infestans; component (b) alone, 2 ppm
  Test 1 Measured: 45.2
  Test 1 Measured preventive value: 51.7
Phytophthora infestans; component (b) alone, 10 ppm
  Test 1 Measured: 97.0
  Test 1 Measured preventive value: 96.2
[1]; [2]
  Test 2 Measured preventive value: 0
[1]; [3]
  Test 2 Measured preventive value: 57.5
[1]; [4]
  Test 2 Measured preventive value: 93.5
[1]; component (b) alone, 0.4 ppm
  Test 2 Measured: 4
  Test 2 Measured preventive value: 0
[1]; component (b) alone, 2 ppm
  Test 2 Measured: 51.8
  Test 2 Measured preventive value: 57.5
[1]; component (b) alone, 10 ppm
  Test 2 Measured: 93
  Test 2 Measured preventive value: 93.5

## O=C1C2CC=CCC2C(=O)N1SC(Cl)(Cl)Cl (stereo not shown) [Captan]
Phytophthora infestans; [5]
  pest or weed control at 2 ppm: 5%
Phytophthora infestans; [6]
  pest or weed control at 10 ppm: 71.7%
Phytophthora infestans; [7]
  pest or weed control at 50 ppm: 93.8%
Phytophthora infestans; Phytophthora infestans, in Solanum lycopersicum, read-out: Test 1 Measured, component (b) alone, 2 ppm
  pest or weed control at 2 ppm: 10%
Phytophthora infestans; Phytophthora infestans, in Solanum lycopersicum, read-out: Test 1 Measured, component (b) alone, 10 ppm
  pest or weed control at 10 ppm: 64.5%
Phytophthora infestans; Phytophthora infestans, in Solanum lycopersicum, read-out: Test 1 Measured, component (b) alone, 50 ppm
  pest or weed control at 50 ppm: 90%
[1]; Pseudoperonospora cubensis, component (b) alone, 2 ppm, read-out: Test 2 Measured
  pest or weed control at 2 ppm: 90.1%
[1]; Pseudoperonospora cubensis, component (b) alone, 10 ppm, read-out: Test 2 Measured
  pest or weed control at 10 ppm: 99%
[1]; Pseudoperonospora cubensis, component (b) alone, 50 ppm, read-out: Test 2 Measured
  pest or weed control at 50 ppm: 99%
[1]; component (b) alone, 2 ppm
  Test 2 Measured preventive value: 96 and 100
[1]; component (b) alone, 10 ppm
  Test 2 Measured preventive value: 99.3
[1]; component (b) alone, 50 ppm
  Test 2 Measured preventive value: 100 and 96

## Basic copper sulfate
Phytophthora infestans; component (b) alone, 20 ppm
  Test 1 Measured: 55
  Test 1 Measured preventive value: 71.7
Phytophthora infestans; component (b) alone, 100 ppm
  Test 1 Measured: 90.7
  Test 1 Measured preventive value: 92.5
Phytophthora infestans; component (b) alone, 500 ppm
  Test 1 Measured: 100
  Test 1 Measured preventive value: 100
[1]; component (b) alone, 20 ppm
  Test 2 Measured: 32
  Test 2 Measured preventive value: 18.8
[1]; component (b) alone, 100 ppm
  Test 2 Measured: 80.9
  Test 2 Measured preventive value: 82
[1]; component (b) alone, 500 ppm
  Test 2 Measured: 95
  Test 2 Measured preventive value: 97

## CC(=O)Oc1c(C)c(C)nc2c(F)cc(C(C)(C)C)cc12 [Tebufloquin]
Phytophthora infestans; component (b) alone 4 ppm
  Test 1 Measured: 0.0
Phytophthora infestans; component (b) alone, 20 ppm
  Test 1 Measured: 0.0
Phytophthora infestans; component (b) alone, 100 ppm
  Test 1 Measured: 46.7
[1]; component (b) alone 4 ppm
  Test 2 Measured: 0
[1]; component (b) alone, 20 ppm
  Test 2 Measured: 0
[1]; component (b) alone, 100 ppm
  Test 2 Measured: 0

## Cc1cc(C2CC2)nc(Nc2ccccc2)n1 [Cyprodinil]
Phytophthora infestans; [8]
  pest or weed control at 20 ppm: 0%
  pest or weed control at 100 ppm: 0%
  pest or weed control at 500 ppm: 0%
[1]; [9]
  pest or weed control at 20 ppm: 0%
  pest or weed control at 100 ppm: 0%

## CCNC(=O)NC(=O)/C(C#N)=N/OC [Cymoxanil]
Phytophthora infestans; [5]
  pest or weed control at 2 ppm: 31.7%
Phytophthora infestans; [6]
  pest or weed control at 10 ppm: 78.3%
Phytophthora infestans; [7]
  pest or weed control at 50 ppm: 100%
[1]; component (b) alone, 2 ppm
  Test 2 Measured preventive value: 0
[1]; component (b) alone, 10 ppm
  Test 2 Measured preventive value: 0
[1]; component (b) alone, 50 ppm
  Test 2 Measured preventive value: 46.3

## N#Cc1c[nH]cc1-c1cccc2c1OC(F)(F)O2 [Fludioxonil]
Phytophthora infestans; [8]
  pest or weed control at 20 ppm: 0%
  pest or weed control at 100 ppm: 6.7%
  pest or weed control at 500 ppm: 18.3%
[1]; [9]
  pest or weed control at 20 ppm: 87.5%
  pest or weed control at 100 ppm: 97%
[1]; Pseudoperonospora cubensis, component (b) alone 500 ppm, read-out: Test 2 Measured
  pest or weed control at 500 ppm: 98.3%

## CCCC1COC(Cn2cncn2)(c2ccc(Cl)cc2Cl)O1 (stereo not shown) [Propiconazole]
Phytophthora infestans; Phytophthora infestans, in Solanum lycopersicum, read-out: Test 1 Measured, component (b) alone 8 ppm
  pest or weed control at 8 ppm: 0%
Phytophthora infestans; Phytophthora infestans, in Solanum lycopersicum, read-out: Test 1 Measured, component (b) alone 40 ppm
  pest or weed control at 40 ppm: 35%
Phytophthora infestans; Phytophthora infestans, in Solanum lycopersicum, read-out: Test 1 Measured, component (b) alone 200 ppm
  pest or weed control at 200 ppm: 53.3%
[1]; Pseudoperonospora cubensis, component (b) alone 8 ppm, read-out: Test 2 Measured
  pest or weed control at 8 ppm: 0%
[1]; Pseudoperonospora cubensis, component (b) alone 40 ppm, read-out: Test 2 Measured
  pest or weed control at 40 ppm: 7.5%
[1]; Pseudoperonospora cubensis, component (b) alone 200 ppm, read-out: Test 2 Measured
  pest or weed control at 200 ppm: 57.5%

## CCC(C)(NC(=O)c1cc(Cl)c(C)c(Cl)c1)C(=O)CCl (stereo not shown) [Zoxamide]
Phytophthora infestans; [5]
  pest or weed control at 2 ppm: 83.3%
Phytophthora infestans; [6]
  pest or weed control at 10 ppm: 95%
Phytophthora infestans; [7]
  pest or weed control at 50 ppm: 99%
[1]; component (b) alone, 2 ppm
  Test 2 Measured preventive value: 94
[1]; component (b) alone, 10 ppm
  Test 2 Measured preventive value: 97.3
[1]; component (b) alone, 50 ppm
  Test 2 Measured preventive value: 98.8

## N=C(N)NCCCCCCCCNCCCCCCCCNC(=N)N [Iminoctadine]
Phytophthora infestans; component (b) alone, 20 ppm
  Test 1 Measured: 5
Phytophthora infestans; component (b) alone, 100 ppm
  Test 1 Measured: 92.5
Phytophthora infestans; component (b) alone, 500 ppm
  Test 1 Measured: 96.5
[1]; component (b) alone, 20 ppm
  Test 2 Measured: 79.5
[1]; component (b) alone, 100 ppm
  Test 2 Measured: 97
[1]; component (b) alone, 500 ppm
  Test 2 Measured: 99

## CC(C)CC(C)c1sccc1NC(=O)c1cn(C)nc1C(F)(F)F (stereo not shown) [Penthiopyrad]
Phytophthora infestans; Phytophthora infestans, in Solanum lycopersicum, read-out: Test 1 preventive value, Measured, applied alone, 10 ppm
  pest or weed control at 10 ppm: 0%
Phytophthora infestans; Phytophthora infestans, in Solanum lycopersicum, read-out: Test 1 preventive value, Measured, applied alone, 50 ppm
  pest or weed control at 50 ppm: 0%
Phytophthora infestans; Phytophthora infestans, in Solanum lycopersicum, read-out: Test 1 preventive value, Measured, applied alone, 250 ppm
  pest or weed control at 250 ppm: 0%
[1]; Pseudoperonospora cubensis, applied alone, 10 ppm, read-out: Test 2 preventive value, Measured
  pest or weed control at 10 ppm: 0%
[1]; Pseudoperonospora cubensis, applied alone, 50 ppm, read-out: Test 2 preventive value, Measured
  pest or weed control at 50 ppm: 0%
[1]; Pseudoperonospora cubensis, applied alone, 250 ppm, read-out: Test 2 preventive value, Measured
  pest or weed control at 250 ppm: 27.5%

## Cc1cc(C(F)(F)F)nn1CC(=O)N1CCC(c2nc(C3OCc4c(F)ccc(OS(C)(=O)=O)c4CO3)cs2)CC1 (stereo not shown) [Compound 1-8, 4-[4-(6-fluoro-9-methylsulfonyloxy-1,5-dihydro-3H-2,4-benzodioxepin-3-yl)-2-thiazolyl]-1-[2-[5-methyl-3-(trifluoromethyl)-1H-pyrazol-1-yl]acetyl]piperidine]
Phytophthora infestans; Compound alone, 0.3 ppm
  Test 1 Measured preventive value: 100
Phytophthora infestans; Phytophthora infestans, in Solanum lycopersicum, read-out: Test 1 Measured preventive value, Compound alone, 0.012 ppm
  pest or weed control at 0.012 ppm: 30%
Phytophthora infestans; Phytophthora infestans, in Solanum lycopersicum, read-out: Test 1 Measured preventive value, Compound alone, 0.06 ppm
  pest or weed control at 0.06 ppm: 98%
Phytophthora infestans; Phytophthora infestans, in Solanum lycopersicum, read-out: Test 1 Measured preventive value, Compound alone, 0.3 ppm
  pest or weed control at 0.3 ppm: 100%
Phytophthora infestans; Phytophthora infestans, in Solanum lycopersicum, read-out: Test 1 Measured, Compound alone 0.06 ppm
  pest or weed control at 0.06 ppm: 96.2%
Phytophthora infestans; Phytophthora infestans, in Solanum lycopersicum, read-out: Test 1 Measured, Compound alone 0.3 ppm
  pest or weed control at 0.3 ppm: 100%
Phytophthora infestans; Phytophthora infestans, in Solanum lycopersicum, read-out: Test 1 preventive value, Measured, applied alone, 0.012 ppm
  pest or weed control at 0.012 ppm: 43.3%
Phytophthora infestans; Phytophthora infestans, in Solanum lycopersicum, read-out: Test 1 preventive value, Measured, applied alone, 0.06 ppm
  pest or weed control at 0.06 ppm: 97.7%
Phytophthora infestans; Phytophthora infestans, in Solanum lycopersicum, read-out: Test 1 preventive value, Measured, applied alone, 0.3 ppm
  pest or weed control at 0.3 ppm: 100%
[1]; Compound alone, 0.012 ppm
  Test 2 Measured preventive value: 10 and 12.5 and 15
[1]; Compound alone, 0.06 ppm
  Test 2 Measured preventive value: 95.5 and 96.5 and 97.5
[1]; Compound alone, 0.3 ppm
  Test 2 Measured preventive value: 100
[1]; Pseudoperonospora cubensis, Compound alone 0.06 ppm, read-out: Test 2 Measured
  pest or weed control at 0.06 ppm: 98.8%
[1]; Pseudoperonospora cubensis, Compound alone 0.3 ppm, read-out: Test 2 Measured
  pest or weed control at 0.3 ppm: 100%
[1]; Pseudoperonospora cubensis, applied alone, 0.06 ppm, read-out: Test 2 preventive value, Measured
  pest or weed control at 0.06 ppm: 98%
[1]; Pseudoperonospora cubensis, applied alone, 0.3 ppm, read-out: Test 2 preventive value, Measured
  pest or weed control at 0.3 ppm: 100%
[1]; applied alone, 0.06 ppm
  Test 2 preventive value, Measured: 98
